Active and inactive are the calls of the source.
How the values were obtained:
[1] = biological target: Glyceraldehyde-3-phosphate dehydrogenase (Homo sapiens, UniProt P04406)
[2] = biological target: T1, Alkaline phosphatase, tissue-nonspecific isozyme (Homo sapiens, UniProt P05186); assay: human TNAP enzyme inhibitors, SAR follow-up, biochemical, luminescent, dose response (AID 1056)
T1 sequence (P05186 whole entry): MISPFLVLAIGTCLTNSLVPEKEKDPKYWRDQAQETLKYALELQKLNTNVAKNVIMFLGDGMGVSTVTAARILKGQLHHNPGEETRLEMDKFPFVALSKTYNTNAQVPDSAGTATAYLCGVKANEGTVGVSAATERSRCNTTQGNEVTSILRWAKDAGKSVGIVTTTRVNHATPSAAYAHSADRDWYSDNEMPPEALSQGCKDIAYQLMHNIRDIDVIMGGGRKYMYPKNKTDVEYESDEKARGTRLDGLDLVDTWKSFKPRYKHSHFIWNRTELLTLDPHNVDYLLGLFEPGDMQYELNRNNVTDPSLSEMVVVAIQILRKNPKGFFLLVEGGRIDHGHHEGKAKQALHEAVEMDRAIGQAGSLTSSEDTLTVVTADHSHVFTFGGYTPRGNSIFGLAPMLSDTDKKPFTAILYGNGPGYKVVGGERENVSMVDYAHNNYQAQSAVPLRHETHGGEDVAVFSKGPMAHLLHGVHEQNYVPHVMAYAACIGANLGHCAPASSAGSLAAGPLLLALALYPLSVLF

[3] = Concentration-dependent survival of SW480 colon cancer line, luminescence detection with CellTiter-Glo, half-maximal inhibitory concentration (AID 1117338); assay type: functional
[4] = RKO cell viability reduction, dose response, CellTiter-Glo luminescence (AID 1117322); assay type: functional
[5] = cytotoxicity toward HCT116 cells – cell-based, CellTiter-Glo luminescence, IC50, dose response (AID 1117332); assay type: functional; details: HCT-116
[6] = SNU-C1 cell viability reduction, dose response, CellTiter-Glo luminescence (AID 1117323); assay type: functional, cell-based
[7] = cytotoxicity toward Colo320 cells – cell-based, CellTiter-Glo luminescence, IC50, dose response (AID 1117334); assay type: functional; details: COLO 320
[8] = cytotoxicity toward HT-29 cells – cell-based, CellTiter-Glo luminescence, IC50, dose response (AID 1117330); assay type: functional
[9] = CellTiter-Glo luminescent dose response of DLD-1 viability loss (AID 1117352); assay type: functional
[10] = HCT116 cell viability decrease, GSK3B pretreatment – CellTiter-Glo, IC50, dose response (AID 1117339); assay type: functional; details: HCT-116
[11] = THP-1 cell cytotoxicity, dose response, cytotoxicity control for non-replicating M. tuberculosis project (AID 489025); assay type: functional
[12] = HepG2 cell cytotoxicity, dose response, cytotoxicity control for non-replicating M. tuberculosis project (AID 489018); assay type: functional; details: Mycobacterium tuberculosis
[13] = Vero E6 cell cytotoxicity, dose response, cytotoxicity control for non-replicating M. tuberculosis project, secondary assay (AID 492998); assay type: functional, VeroE6; details: Vero C1008
cells [14] = assay type: functional
H9c2 = assay: cells; assay type: functional, cell-based; details: Rattus norvegicus, H9c2, Myocardium;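 also: confirmatory concentration-response retest of ultra-high-throughput screening hits for modulation of myocardial damage; cell death induced by hydrogen peroxide oxidative stress; compound pretreatment for 60 min then peroxide exposure for 2 h; potency is for protecting the cells against peroxide damage rather than for killing them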
Estrogen receptor beta [15] = biological target: T2, Estrogen receptor beta (Homo sapiens, UniProt Q92731);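 also: recombinant ER-beta bound to coactivator SRC1 peptide in presence of estradiol agonist; inhibitors block coactivator peptide binding and lower the FRET signal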
Estrogen receptor beta [16] = biological target: T2, Estrogen receptor beta; assay: ERβ–SRC-3 coactivator interaction inhibitors, confirmation, orthogonal assay, biochemical, ELISA, streptavidin-HRP readout (AID 1060)
[17] = system: Streptococcus sp. 'group A'; assay: growth inhibition of control SK(-) GAS strain, dose response, counter-screen for streptokinase expression inhibitor project, luminescence, kanamycin, BacTiterGlo, confirmation (AID 1900); assay type: functional, organism-based
BJ [18] = assay: cytotoxicity toward BJ-TERT fibroblasts, dose response, cell-based, RAS-independent, luminescence (AID 1933); assay type: functional; details: Homo sapiens
cells [19] = assay type: functional, cell-based
Streptokinase A = biological target: T3, Streptokinase A (Streptococcus pyogenes serotype M1, UniProt P10520); assay: S. pyogenes streptokinase expression inhibitors, potency, dose response, plasminogen activation absorbance, OD405 (AID 1914); assay type: functional, Streptococcus pyogenes M1 GAS;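 also: secreted streptokinase activity via plasminogen activation per viability signal from cell pellet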
T3 sequence (P10520 whole entry): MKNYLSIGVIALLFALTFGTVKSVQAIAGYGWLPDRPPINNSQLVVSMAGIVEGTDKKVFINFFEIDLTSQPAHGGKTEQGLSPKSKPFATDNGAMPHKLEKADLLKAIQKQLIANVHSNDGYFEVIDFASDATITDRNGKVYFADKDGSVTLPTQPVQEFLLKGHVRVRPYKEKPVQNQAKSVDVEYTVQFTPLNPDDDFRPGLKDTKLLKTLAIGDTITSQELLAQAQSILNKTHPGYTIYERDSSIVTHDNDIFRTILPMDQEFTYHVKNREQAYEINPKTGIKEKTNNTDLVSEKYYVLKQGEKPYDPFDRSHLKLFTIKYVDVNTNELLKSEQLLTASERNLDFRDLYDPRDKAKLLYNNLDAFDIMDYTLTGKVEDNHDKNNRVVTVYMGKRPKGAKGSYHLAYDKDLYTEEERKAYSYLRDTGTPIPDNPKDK

BJ [20] = assay: cells; assay type: functional, cell-based; details: Homo sapiens
cells [21] = assay type: functional, cell-based; remark: listed apart in the source
BJ [22] = assay: cytotoxicity toward BJ-TERT-LT-ST fibroblasts, dose response, cell-based, RAS-independent, luminescence (AID 1935); assay type: functional; details: Homo sapiens;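 also: BJ fibroblasts immortalized with TERT plus LT and ST oncogenes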
[23] = cytotoxicity toward DRD oncogenic fibroblasts, dose response, cell-based, non-viral oncogenic, luminescence (AID 1934); assay type: functional; details: Homo sapiens
Streptococcus = assay: Group A Streptococcus viability loss, dose response, counter-screen for streptokinase expression inhibitor project, luminescence, BacTiterGlo (AID 1915); assay type: functional, organism-based;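 also: potency for reduction of bacterial viability or growth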
[24] = cytotoxicity in HEK-293T cells, dose response, cytotoxicity control for TCR NF-kB inhibitor project, luminescence, T-cell screen hits (AID 489026); assay type: functional, cell-based;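 also: cells exposed to compound about 14 hours before the viability readout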
HEK293 = assay: inhibitors of LMP1-driven NF-kB reporter, dose response, cell-based, HEK293, luciferase, cherry-pick (AID 588343); assay type: functional; details: Homo sapiens
INS1 = assay: beta cell apoptosis inhibitors, cytokine rescue, dose response, luminescence, retest (AID 449756); assay type: functional, cell-based; details: Rattus norvegicus;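 also: cell death triggered by IL-1 beta plus TNF-alpha plus IFN-gamma mixture; protective hits raise ATP signal compared with cytokine alone wells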
[25] = Luminescence Cell-Based Dose Retest to Confirm Inhibitors of Cancer Stem Cells. [Related pubchem assays (depositor defined):AID2717, AID2721]; assay type: functional; details: Homo sapiens
Nonstructural protein 1 = Nonstructural protein 1 (Influenza A virus, UniProt Q194T2); assay type: functional, Influenza A virus (A/California/07/2009(H1N1))
[26] = Shn3 3'UTR reporter inhibitors, dose response, cell-based, Clone20 osteoblasts, firefly luciferase, cherry-picked (AID 624132); assay type: functional;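 also: firefly luciferase luminescence from reporter carrying the Shn3 3'UTR in osteoblasts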
[27] = HepG2 cell cytotoxicity, dose response, cytotoxicity control for Shn3 inhibitor project, CellTiter-Glo, cherry-picked (AID 624134); assay type: functional, cell-based
[28] = control 3'UTR Renilla luciferase suppression, dose response, counter-screen for Shn3 inhibitor project, cell-based, Clone20-Shn3RL, cherry-picked (AID 624133); assay type: functional
[29] = NIH-3T3 fibroblast cytotoxicity, dose response, cytotoxicity control, cell-based, fluorescence, Alamar Blue, secondary assay (AID 2327); assay type: functional;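 also: NIH-3T3 mouse fibroblasts cultured with fluconazole at 8 µg/mL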
[30] = C. albicans growth with fluconazole, confirmation, fluorescence, retest (AID 2467); assay type: functional, cell-based
[31] = microbe, parasite or virus in culture; assay type: functional; details: Mycobacterium tuberculosis

T2 sequence (Q92731 whole entry): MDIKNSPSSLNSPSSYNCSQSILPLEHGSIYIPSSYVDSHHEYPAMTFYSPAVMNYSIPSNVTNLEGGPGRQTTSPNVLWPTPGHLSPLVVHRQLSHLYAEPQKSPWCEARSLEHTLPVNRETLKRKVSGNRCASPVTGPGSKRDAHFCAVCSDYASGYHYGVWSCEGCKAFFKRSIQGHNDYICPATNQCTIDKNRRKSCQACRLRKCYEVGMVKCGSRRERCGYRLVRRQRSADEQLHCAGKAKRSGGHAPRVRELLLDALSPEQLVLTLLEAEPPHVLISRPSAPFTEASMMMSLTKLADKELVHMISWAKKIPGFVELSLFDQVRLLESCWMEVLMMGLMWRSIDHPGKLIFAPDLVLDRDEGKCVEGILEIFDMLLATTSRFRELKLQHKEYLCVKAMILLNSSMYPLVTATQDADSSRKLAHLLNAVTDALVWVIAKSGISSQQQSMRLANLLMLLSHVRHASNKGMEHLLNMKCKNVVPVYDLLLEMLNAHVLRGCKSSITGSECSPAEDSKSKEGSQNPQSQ
Sequence of Glyceraldehyde-3-phosphate dehydrogenase (P04406 whole entry): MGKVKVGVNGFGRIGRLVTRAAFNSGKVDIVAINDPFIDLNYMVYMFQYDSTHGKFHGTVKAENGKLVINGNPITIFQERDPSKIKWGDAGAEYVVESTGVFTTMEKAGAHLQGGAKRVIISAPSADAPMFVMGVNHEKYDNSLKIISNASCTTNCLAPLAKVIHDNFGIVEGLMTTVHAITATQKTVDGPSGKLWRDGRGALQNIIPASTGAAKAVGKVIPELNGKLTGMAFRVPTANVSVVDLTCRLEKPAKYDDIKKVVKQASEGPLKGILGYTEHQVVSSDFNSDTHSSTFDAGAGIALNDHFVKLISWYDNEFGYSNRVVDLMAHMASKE
Sequence of Nonstructural protein 1 (Q194T2 whole entry): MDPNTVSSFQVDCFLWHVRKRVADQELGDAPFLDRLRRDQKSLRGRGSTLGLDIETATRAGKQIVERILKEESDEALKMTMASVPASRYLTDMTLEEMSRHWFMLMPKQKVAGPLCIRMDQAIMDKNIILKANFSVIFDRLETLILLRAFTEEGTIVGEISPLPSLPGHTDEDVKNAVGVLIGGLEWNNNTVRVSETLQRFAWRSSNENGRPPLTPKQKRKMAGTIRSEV

c1ccc(CN2CCN=C2c2cccnc2)cc1
IC50 [1]: > 100 µM (not active) | IC50 [2]: > 100 µM (inactive)

COC(=O)C1=C(C)NC(C)=C(C(=O)O[C@@H]2CCCN(Cc3ccccc3)C2)[C@@H]1c1cccc([N+](=O)[O-])c1
IC50 [3]: > 20 µM (inactive) | IC50 [4]: 8.05 µM (inactive) | IC50 [5]: 4.28 µM (active) | IC50 [6]: 5.76 µM (inactive) | IC50 [7]: 19.5 µM (inactive) | IC50 [8]: 5.27 µM (inactive) | IC50 [9]: 7.96 µM (inactive) | IC50 [10]: 5.31 µM (inactive)

CCOC(=O)Cc1c(C)nc2c(-c3ccc(Cl)cc3)cnn2c1O
CC50 [11]: 29 µM (active) | CC50 [12]: > 20 µM (active) | CC50 [13]: 17.5 µM (active) | IC50 (cells [14]): 6.28 µM (active) | IC50 (H9c2): > 79 µM (inactive)

Cc1cc(C)c(C(=O)COc2cccnc2[N+](=O)[O-])cc1C
IC50 (Estrogen receptor beta [15]): 7.21 µM (active) | IC50 (Estrogen receptor beta [16]): > 50 µM (not active)

CCOc1cccc(/C=N/Nc2ccc(S(=O)(=O)N(CC)CC)cn2)c1O
EC50 [17]: 6.87 µM (active) | EC50 (BJ [18]): 2.86 µM (active) | EC50 (cells [19]): > 350 µM (not active) | EC50 (Streptokinase A): > 150 µM (not active) | EC50 (BJ [20]): 4.12 µM (active) | EC50 (cells [21]): 49.6 µM (active) | EC50 (BJ [22]): 7.7 µM (active) | EC50 [23]: 3.94 µM (active) | EC50 (Streptococcus): 9.29 µM (active) | IC50 [24]: > 80 µM (inactive) | AC50 (HEK293): 4.85 µM (active) | AC50 (INS1): 1.12 µM (active)

Cc1ccnc2c1ccc1c(C)ccnc12
AC50 [25]: 1.54 µM (active) | IC50 [24]: > 80 µM (inactive) | IC50 (Nonstructural protein 1): 0.472 µM (active) | AC50 (INS1): 1.92 µM (active) | AC50 [26]: 0.857 µM (active) | AC50 [27]: > 70 µM (inactive) | AC50 [28]: > 70 µM (inactive)

CCCCC[C@@H](O)CC[C@H]1[C@@H]2Cc3cccc(OCC(=O)O)c3C[C@@H]2C[C@@H]1O
IC50 [3]: > 20 µM (inactive) | IC50 [4]: > 20 µM (inactive) | IC50 [5]: > 20 µM (inactive) | IC50 [6]: > 20 µM (inactive) | IC50 [7]: > 20 µM (inactive) | IC50 [8]: > 20 µM (inactive) | IC50 [9]: > 20 µM (inactive) | IC50 [10]: > 20 µM (inactive)

COc1ccc(S(=O)(=O)Nc2cnc3ccccc3c2)c(OC)c1
IC50 [1]: > 100 µM (not active) | IC50 [2]: 19.5 µM (active)

COCCOC(=O)c1c(C)oc2ccc(NS(=O)(=O)c3ccc(C(=O)O)cc3)cc12
IC50 (Estrogen receptor beta [16]): 3.82 µM (not active)

CCCCN(C)S(=O)(=O)c1ccc(C(=O)Nc2nnc(-c3ccco3)o2)cc1
EC50 [29]: > 160 µM (inconclusive) | EC50 [30]: 2.63 µM (active) | CC50 [31]: 11.6 µM (active) | CC50 [11]: 10.5 µM (active) | CC50 [12]: 12.5 µM (active) | CC50 [13]: 6.27 µM (active) | IC50 (cells [14]): 6.64 µM (active)
